Results taken from patent EP0688218B1, “INTERLEUKIN-1 INHIBITOR” (OTSUKA PHARMACEUTICAL CO., LTD., priority 1993, dated 1994).

How the values were obtained:
IL-1α = assay: Inhibition of LPS-stimulated IL-1α release in heparinized peripheral blood culture (ELISA); format: cell-based, human; details: Dose 3 x 10^-5 g/ml; 10% heparinized peripheral blood from healthy volunteer; LPS 3.3 µg/ml; 18 - 24 hours
Experimental: (§1) Method: A 10% heparinized prepheral blood from healthy volunteer, a test compound and lipopolysaccharide (LPS, 3.3 µg/ml) were suspended in RPMI-1640 medium supplemented with penicillin 100 units/ml and streptomycin […], and the mixture was incubated in a 5% CO2 atmosphere at 37°C for 18 - 24 hours. The supernatant of the culture was collected by centrifugation.
(§2) The IL-1α and IL-1β isolated from cells by stimulation with LPS were measured by enzyme-linked immunoassay (ELISA). That is, 96-well ELISA plate was coated with a mouse monoclonal antibody against human IL - 1α or human IL-1β, followed by blocking treatment, and thereto was added a test sample and it was subjected to reaction. […] After removing the unbound POD-conjugated antibody by washing, a substrate solution (containing ortho-phenylenediamine and hydrogen peroxide) was added and subjected to reaction, and thereafter, the absorbance at 492 nm was measured, and thereby the amounts of IL-1α and IL-1β were measured based on each standard curve. The ratio (%) of inhibition of IL-1 release was calculated by the following equation: IL-1 release inhibitory ratio (%) = 100 x (1-T/C) [formula] wherein T means the amount of IL-1 in the supernatant of culture incorporated with the test compound, and C means the amount of IL-1 in the supernatant of culture added only with the solvent.

IL-1β = assay: Inhibition of LPS-stimulated IL-1β release in heparinized peripheral blood culture (ELISA); format: cell-based, human; details: Dose 3 x 10^-5 g/ml; 10% heparinized peripheral blood from healthy volunteer; LPS 3.3 µg/ml; 18 - 24 hours
Experimental: as §1, §2

## Cc1c(F)c(N2CCNC(C)C2)cc2c1c(=O)c(C(=O)O)cn2C1CC1 (stereo not shown) [Test compound 1, 7-(3-Methyl-1-piperazinyl)-1-cyclopropyl-6-fluoro-5-methyl-1,4-dihydro-4-oxoquinoline-3-carboxylic acid]
IL-1α
  IL-1α release inhibitory ratio: 93%
IL-1β
  IL-1β release inhibitory ratio: 96%

## CC1CCc2c(N3CCC(O)CC3)c(F)cc3c(=O)c(C(=O)O)cn1c23 (stereo not shown) [Test compound 2, 9-Fluoro-8-(4-hydroxy-1-piperidinyl)-5-methyl-6,7-dihydro-1-oxo-1H,5H-benzo[ji]quinolidine-2-carboxylic acid]
IL-1α
  IL-1α release inhibitory ratio: 82%
IL-1β
  IL-1β release inhibitory ratio: 78%
